From publication PMC3357308 (Diabetes, 2012)

Columns and labels:
[1] = system: 11β-reductase and 11β-dehydrogenase activities; experiment: Cortisol/cortisone interconversion in subcutaneous adipose and skeletal muscle; type: in vivo, human; settings: arteriovenous difference adjusted for blood flow, n = 6; for Ra (net Ra for cortisone), skeletal muscle release: forearm
11βHSD1 = settings: in vivo, d4-cortisol tracer; cited from earlier work
human 11βHSD1 [2] = molecular target: T1, human 11βHSD1 (Homo sapiens, UniProt P28845); type: cell-based; settings: HEK293/h11βHSD1 cells, substrate 2 μmol/L, 1–24 h, n = 6
human 11βHSD1 [3] = molecular target: T1, human 11βHSD1; experiment: Competition with [3H]2-cortisone in HEK293/h11βHSD1 cells; type: cell-based; settings: [3H]2-cortisone 5 nmol/L, competitor 0–4,955 nmol/L, 6–24 h
[4] = system: 11β-reductase and 11β-dehydrogenase activities; experiment: Cortisol/cortisone interconversion in the splanchnic circulation; type: in vivo, human; settings: adjusted for hepatic blood flow, n = 4
11β-dehydrogenase [5] = settings: extrapolated from generation of d3-cortisone, non–steady-state, adjusted for substrate concentration and volume of distribution; cited from earlier work
11β-dehydrogenase [6] = experiment: Primed 3-h d2-cortisone infusion before and after licorice; settings: without licorice, whole body, steady state, n = 3
[7] = In vivo pharmacokinetics of d2-cortisone after intravenous bolus; set-up: species or system human; settings: iv bolus 141 μg

T1 sequence (P28845 whole entry): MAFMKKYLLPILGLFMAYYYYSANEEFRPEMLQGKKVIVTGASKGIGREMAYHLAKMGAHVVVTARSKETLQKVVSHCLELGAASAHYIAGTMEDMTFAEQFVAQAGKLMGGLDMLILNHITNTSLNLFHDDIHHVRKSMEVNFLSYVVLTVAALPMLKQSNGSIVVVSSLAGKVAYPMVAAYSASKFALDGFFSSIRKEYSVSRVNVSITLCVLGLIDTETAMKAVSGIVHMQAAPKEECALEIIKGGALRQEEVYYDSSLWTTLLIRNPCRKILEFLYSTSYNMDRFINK

| Ra (net Ra for cortisone), skeletal muscle release [1] [pmol/100 mL/min] | production of d2-cortisol or cortisol from the substrate (human 11βHSD1 [2]) [pmol/10^5 cells/min] | Vmax for formation of [3H]2-cortisol in the presence of the steroid (human 11βHSD1 [3]) [pmol/10^5 cells/min] | Ra (net Ra for cortisone), subcutaneous adipose release [1] [pmol/100 g/min] | Ra (net Ra for cortisone), splanchnic release [4] [nmol/min] | Net Ra of cortisone (11β-dehydrogenase [6]) [nmol/min] | time tracer could be detected after injection ([7]; blood) [h] | area under the curve ([7]; n = 3) [nmol/L per min] | Structure (SMILES) | cortisol released by subcutaneous adipose 11βHSD1 (11βHSD1) [pmol/100 g tissue/min] | cortisone production rate (11β-dehydrogenase [5]) [nmol/min] |
| --- | --- | --- | --- | --- | --- | --- | --- | --- | --- | --- |
| 19.7 ± 4.1 | – | – | – | – | – | – | – | C[C@]12CCC(=O)C=C1CC[C@@H]1[C@@H]2[C@@H](O)C[C@@]2(C)[C@H]1CC[C@]2(O)C(=O)CO [cortisol] | ~15 | – |
| 15.2 ± 5.8 | 0.41 ± 0.15 | 0.73 ± 0.26 | 38.7 ± 5.8 | 19.5 ± 2.8 | 36 | – | – | C[C@]12CCC(=O)C=C1CC[C@@H]1[C@@H]2C(=O)C[C@@]2(C)[C@H]1CC[C@]2(O)C(=O)CO [cortisone] | – | 24 |
| – | 0.17 ± 0.05 | 0.83 ± 0.34 | – | – | – | 1.5 | 494 | [2H]C1C(=O)C=C2CC[C@H]3[C@@H]4CC[C@](O)(C(=O)CO)[C@@]4(C)CC(=O)[C@@H]3[C@@]2(C)C1[2H] (some centres unmarked) [d2-cortisone, 1,2-[^2H]2-Cortisone] | – | – |
| 5.9 ± 1.8 | – | – | – | – | – | – | – | [2H]C1([2H])[C@H](O)[C@@]2([2H])[C@@H](CCC3=CC(=O)CC[C@@]32C)[C@@H]2CC[C@](O)(C(=O)CO)[C@]21C [d3-cortisol] | – | – |
